Laboratory results taken from ChEMBL document CHEMBL5113477, “Membrane acting Povarov-Doebner derived compounds potently disperse preformed multidrug resistant Gram-positive bacterial biofilms” (Eur J Med Chem, 2022).

What was measured:
Enterococcus faecium [1] = test: Antibiofilm activity against vancomycin-resistant Enterococcus faecium ATCC 700221 in TSB broth assessed as dispersal of glucose-induced biofilm at 8 to 16 ug/ml preincubated with glucose for 48 hrs followed by compound addition and measured after 24 hrs by crystal violet staining based analysis; format: functional; conditions: dose 8-16 µg/ml, at 8 to 16 µg/mL
Enterococcus faecium [2] = test: Synergistic antibiofilm activity against vancomycin-resistant Enterococcus faecium ATCC 700221 in TSB broth assessed as dispersal of glucose-induced biofilm preincubated with glucose for 48 hrs followed by compound addition and further incubated for 24 hrs in presence of Nitroxoline by crystal violet staining based checkerboard assay; format: functional

Oc1ccc([C@@H]2Nc3ccc(S(F)(F)(F)(F)F)cc3[C@H]3[C@@H]4CC[C@@H](C4)[C@H]32)cc1
Activity (Enterococcus faecium [1]): 70%
MBEC (Enterococcus faecium [2]): 4 µg/mL
